Among the data in PubChem BioAssay AID1963984 (Molecular Pharmacology Branch, DTP, NCI, 2024) are IC50 and viability, T/C values, retold here.
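Note: spheroids exposed to agents for seven days before readout.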
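Throughout, for viability, T/C: percent viability relative to DMSO vehicle control taken as 100%.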

The test system of one experiment is 233499-124-R-J3-PDC spheroids with HUVEC/MSC, viability. Kind of experiment: Anticancer human tumor 233499-124-R-J3-PDC patient-derived colon adenocarcinoma cell line growth inhibition [PI3K]. As to conditions: curve of first compound; second compound 0.00316 µM. The essentials: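 Complex 3D spheroids (cancer cells + endothelial HUVEC + mesenchymal stem cells); drug pairs of targeted agent x inavolisib/alpelisib/duvelisib/copanlisib; half-log series from ~Cmax, max 10 microM if Cmax unknown; endpoint viability.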
Turning to `CCCS(=O)(=O)Nc1ccc(F)c(C(=O)c2c[nH]c3ncc(-c4ccc(Cl)cc4)cc23)c1F` + COc1c(OCCCN2CCOCC2)ccc2c3n(c(=NC(=O)c4cnc(N)nc4)nc12)CCN3, the IC50 was 5 µM.
Consider `Cn1ncc(Cl)c1-c1cc(C(=O)NC(CN)Cc2cccc(F)c2)sc1Cl` (stereo unspecified) + CC(Nc1ccc2c(c1)OCCn1cc(N3C(=O)OCC3C(F)F)nc1-2)C(N)=O, for which the concentration for half-maximal inhibition (IC50) stood at 4.46 µM.
In the case of `CCCS(=O)(=O)Nc1ccc(F)c(C(=O)c2c[nH]c3ncc(-c4ccc(Cl)cc4)cc23)c1F` + CC(Nc1ccc2c(c1)OCCn1cc(N3C(=O)OCC3C(F)F)nc1-2)C(N)=O, the IC50 turned out to be 5.62 µM.

Staying with this experiment, now noted: curve of first compound; second compound 0.01 µM.
As for `CCCS(=O)(=O)Nc1ccc(F)c(C(=O)c2c[nH]c3ncc(-c4ccc(Cl)cc4)cc23)c1F` + COc1c(OCCCN2CCOCC2)ccc2c3n(c(=NC(=O)c4cnc(N)nc4)nc12)CCN3, the IC50 came to 5.78 µM.
In the case of `Cn1ncc(Cl)c1-c1cc(C(=O)NC(CN)Cc2cccc(F)c2)sc1Cl` (stereo unspecified) + CC(Nc1ccc2c(c1)OCCn1cc(N3C(=O)OCC3C(F)F)nc1-2)C(N)=O, the half-maximal inhibitory concentration (IC50) was 3.79 µM.
The same measure, in the same setting: in the case of `CCCS(=O)(=O)Nc1ccc(F)c(C(=O)c2c[nH]c3ncc(-c4ccc(Cl)cc4)cc23)c1F` + CC(Nc1ccc2c(c1)OCCn1cc(N3C(=O)OCC3C(F)F)nc1-2)C(N)=O it was 5.14 µM.

The same experiment, now with this note: curve of first compound; second compound 0.0316 µM.
On to `CCCS(=O)(=O)Nc1ccc(F)c(C(=O)c2c[nH]c3ncc(-c4ccc(Cl)cc4)cc23)c1F` + COc1c(OCCCN2CCOCC2)ccc2c3n(c(=NC(=O)c4cnc(N)nc4)nc12)CCN3, for which the IC50 turned out to be 5.03 µM.
As for `Cn1ncc(Cl)c1-c1cc(C(=O)NC(CN)Cc2cccc(F)c2)sc1Cl` (stereo unspecified) + CC(Nc1ccc2c(c1)OCCn1cc(N3C(=O)OCC3C(F)F)nc1-2)C(N)=O, the IC50 stood at 2.73 µM.
Still for that read-out and setting: then `CCCS(=O)(=O)Nc1ccc(F)c(C(=O)c2c[nH]c3ncc(-c4ccc(Cl)cc4)cc23)c1F` + CC(Nc1ccc2c(c1)OCCn1cc(N3C(=O)OCC3C(F)F)nc1-2)C(N)=O, with 4.72 µM.

The same experiment, now with this note: curve of first compound; second compound 0.1 µM.
Consider `CCCS(=O)(=O)Nc1ccc(F)c(C(=O)c2c[nH]c3ncc(-c4ccc(Cl)cc4)cc23)c1F` + COc1c(OCCCN2CCOCC2)ccc2c3n(c(=NC(=O)c4cnc(N)nc4)nc12)CCN3, for which the IC50 turned out to be 3.41 µM.
Same read-out and setting: in the case of `Cn1ncc(Cl)c1-c1cc(C(=O)NC(CN)Cc2cccc(F)c2)sc1Cl` (stereo unspecified) + CC(Nc1ccc2c(c1)OCCn1cc(N3C(=O)OCC3C(F)F)nc1-2)C(N)=O it was 3.19 µM.
With `CCCS(=O)(=O)Nc1ccc(F)c(C(=O)c2c[nH]c3ncc(-c4ccc(Cl)cc4)cc23)c1F` + CC(Nc1ccc2c(c1)OCCn1cc(N3C(=O)OCC3C(F)F)nc1-2)C(N)=O, the IC50 came out at 5.02 µM.

Staying with this experiment, now noted: curve of first compound; second compound 0.316 µM.
Regarding `CCCS(=O)(=O)Nc1ccc(F)c(C(=O)c2c[nH]c3ncc(-c4ccc(Cl)cc4)cc23)c1F` + COc1c(OCCCN2CCOCC2)ccc2c3n(c(=NC(=O)c4cnc(N)nc4)nc12)CCN3, the half-inhibitory concentration (IC50) is less than 0.0316 µM.
On to `Cn1ncc(Cl)c1-c1cc(C(=O)NC(CN)Cc2cccc(F)c2)sc1Cl` (stereo unspecified) + CC(Nc1ccc2c(c1)OCCn1cc(N3C(=O)OCC3C(F)F)nc1-2)C(N)=O, for which the 50% inhibitory concentration (IC50) turned out to be 1.8 µM.
`CCCS(=O)(=O)Nc1ccc(F)c(C(=O)c2c[nH]c3ncc(-c4ccc(Cl)cc4)cc23)c1F` + CC(Nc1ccc2c(c1)OCCn1cc(N3C(=O)OCC3C(F)F)nc1-2)C(N)=O: the half-inhibitory concentration (IC50) was 3.38 µM.

Staying with this experiment, now noted: curve of first compound; second compound 1 µM.
Turning to `CCCS(=O)(=O)Nc1ccc(F)c(C(=O)c2c[nH]c3ncc(-c4ccc(Cl)cc4)cc23)c1F` + COc1c(OCCCN2CCOCC2)ccc2c3n(c(=NC(=O)c4cnc(N)nc4)nc12)CCN3, the IC50 was less than 0.0316 µM.
Take `Cn1ncc(Cl)c1-c1cc(C(=O)NC(CN)Cc2cccc(F)c2)sc1Cl` (stereo unspecified) + CC(Nc1ccc2c(c1)OCCn1cc(N3C(=O)OCC3C(F)F)nc1-2)C(N)=O: the IC50 is 1.73 µM.
`CCCS(=O)(=O)Nc1ccc(F)c(C(=O)c2c[nH]c3ncc(-c4ccc(Cl)cc4)cc23)c1F` + CC(Nc1ccc2c(c1)OCCn1cc(N3C(=O)OCC3C(F)F)nc1-2)C(N)=O: the IC50 was 1.79 µM.

The same experiment, now with this note: second compound 0.00316 µM; first compound 0.0316 µM; stronger effect = lower value.
As for `CCCS(=O)(=O)Nc1ccc(F)c(C(=O)c2c[nH]c3ncc(-c4ccc(Cl)cc4)cc23)c1F` + COc1c(OCCCN2CCOCC2)ccc2c3n(c(=NC(=O)c4cnc(N)nc4)nc12)CCN3, the viability, T/C was 84%.
Consider `Cn1ncc(Cl)c1-c1cc(C(=O)NC(CN)Cc2cccc(F)c2)sc1Cl` (stereo unspecified) + CC(Nc1ccc2c(c1)OCCn1cc(N3C(=O)OCC3C(F)F)nc1-2)C(N)=O, for which the viability, T/C was 73.9%.
Consider `CCCS(=O)(=O)Nc1ccc(F)c(C(=O)c2c[nH]c3ncc(-c4ccc(Cl)cc4)cc23)c1F` + CC(Nc1ccc2c(c1)OCCn1cc(N3C(=O)OCC3C(F)F)nc1-2)C(N)=O, for which the viability, T/C was 80%.

The same experiment, now with this note: second compound 0.00316 µM; first compound 0.1 µM; stronger effect = lower value.
For `CCCS(=O)(=O)Nc1ccc(F)c(C(=O)c2c[nH]c3ncc(-c4ccc(Cl)cc4)cc23)c1F` + COc1c(OCCCN2CCOCC2)ccc2c3n(c(=NC(=O)c4cnc(N)nc4)nc12)CCN3, the viability, T/C is 87.8%.
On to `Cn1ncc(Cl)c1-c1cc(C(=O)NC(CN)Cc2cccc(F)c2)sc1Cl` (stereo unspecified) + CC(Nc1ccc2c(c1)OCCn1cc(N3C(=O)OCC3C(F)F)nc1-2)C(N)=O, for which the viability, T/C is 93%.
As to `CCCS(=O)(=O)Nc1ccc(F)c(C(=O)c2c[nH]c3ncc(-c4ccc(Cl)cc4)cc23)c1F` + CC(Nc1ccc2c(c1)OCCn1cc(N3C(=O)OCC3C(F)F)nc1-2)C(N)=O, the viability, T/C was 97.9%.

The same experiment, now with this note: second compound 0.00316 µM; first compound 0.316 µM; stronger effect = lower value.
As for `CCCS(=O)(=O)Nc1ccc(F)c(C(=O)c2c[nH]c3ncc(-c4ccc(Cl)cc4)cc23)c1F` + COc1c(OCCCN2CCOCC2)ccc2c3n(c(=NC(=O)c4cnc(N)nc4)nc12)CCN3, the viability, T/C was 101%.
For the compound `Cn1ncc(Cl)c1-c1cc(C(=O)NC(CN)Cc2cccc(F)c2)sc1Cl` (stereo unspecified) + CC(Nc1ccc2c(c1)OCCn1cc(N3C(=O)OCC3C(F)F)nc1-2)C(N)=O, the viability, T/C is 93.9%.
Same read-out and setting: then `CCCS(=O)(=O)Nc1ccc(F)c(C(=O)c2c[nH]c3ncc(-c4ccc(Cl)cc4)cc23)c1F` + CC(Nc1ccc2c(c1)OCCn1cc(N3C(=O)OCC3C(F)F)nc1-2)C(N)=O, with 98.6%.

Still in this experiment, the particulars now being: second compound 0.00316 µM; first compound 1 µM; stronger effect = lower value.
`CCCS(=O)(=O)Nc1ccc(F)c(C(=O)c2c[nH]c3ncc(-c4ccc(Cl)cc4)cc23)c1F` + COc1c(OCCCN2CCOCC2)ccc2c3n(c(=NC(=O)c4cnc(N)nc4)nc12)CCN3: the viability, T/C is 94.1%.
With `Cn1ncc(Cl)c1-c1cc(C(=O)NC(CN)Cc2cccc(F)c2)sc1Cl` (stereo unspecified) + CC(Nc1ccc2c(c1)OCCn1cc(N3C(=O)OCC3C(F)F)nc1-2)C(N)=O, the viability, T/C was 99.9%.
Take `CCCS(=O)(=O)Nc1ccc(F)c(C(=O)c2c[nH]c3ncc(-c4ccc(Cl)cc4)cc23)c1F` + CC(Nc1ccc2c(c1)OCCn1cc(N3C(=O)OCC3C(F)F)nc1-2)C(N)=O: the viability, T/C is 105%.

The experiment is the same for the next values; noted with them: second compound 0.00316 µM; first compound 3.16 µM; stronger effect = lower value.
Turning to `CCCS(=O)(=O)Nc1ccc(F)c(C(=O)c2c[nH]c3ncc(-c4ccc(Cl)cc4)cc23)c1F` + COc1c(OCCCN2CCOCC2)ccc2c3n(c(=NC(=O)c4cnc(N)nc4)nc12)CCN3, the viability, T/C is 79.6%.

The IC50 is the midpoint of a concentration-inhibition curve. As usually defined, the viability, T/C is the result in the treated group divided by that in the control group, in per cent.
